From patent US20230372274A1, “COMPOSITIONS AND METHODS FOR PERIORBITAL ADMINISTRATION OF EP2 RECEPTOR AGONISTS” (JENIVISION INC., priority 2021, published 2023)

Columns and labels:
[1] = target: T1, EP3 receptors (Homo sapiens, UniProt P43115); settings: Woodward et al., 2019; cited from earlier work
T1 sequence (P43115 1-390): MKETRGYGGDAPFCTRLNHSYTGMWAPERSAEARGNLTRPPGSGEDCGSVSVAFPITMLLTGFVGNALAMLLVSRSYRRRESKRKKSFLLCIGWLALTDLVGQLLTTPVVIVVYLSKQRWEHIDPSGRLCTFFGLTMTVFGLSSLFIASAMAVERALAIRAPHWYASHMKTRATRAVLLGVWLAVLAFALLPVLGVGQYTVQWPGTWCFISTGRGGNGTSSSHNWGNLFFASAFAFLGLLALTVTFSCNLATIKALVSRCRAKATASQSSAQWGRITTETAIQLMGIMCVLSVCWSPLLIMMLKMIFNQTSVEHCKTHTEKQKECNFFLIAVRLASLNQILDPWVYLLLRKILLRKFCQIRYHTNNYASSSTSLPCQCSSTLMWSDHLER

[2] = target: T2, human recombinant EP2 receptors (Homo sapiens, UniProt P43116); settings: cited from earlier work
T2 construct: expressed in transfected cells; host or cells: HEK cells
T2 sequence (P43116 whole entry): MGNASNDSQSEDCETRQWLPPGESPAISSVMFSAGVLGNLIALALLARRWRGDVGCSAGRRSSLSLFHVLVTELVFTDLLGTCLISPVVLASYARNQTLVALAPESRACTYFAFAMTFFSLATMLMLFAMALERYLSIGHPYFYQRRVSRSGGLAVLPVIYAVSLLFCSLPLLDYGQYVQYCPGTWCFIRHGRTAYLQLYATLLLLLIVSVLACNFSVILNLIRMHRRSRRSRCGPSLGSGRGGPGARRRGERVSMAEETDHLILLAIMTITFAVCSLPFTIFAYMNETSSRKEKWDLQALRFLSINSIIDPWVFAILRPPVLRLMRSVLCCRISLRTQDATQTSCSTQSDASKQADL

[3] = target: EP4 receptors (Homo sapiens, UniProt P35408); settings: Woodward et al., 2019; cited from earlier work
Sequence of EP4 receptors (P35408 whole entry): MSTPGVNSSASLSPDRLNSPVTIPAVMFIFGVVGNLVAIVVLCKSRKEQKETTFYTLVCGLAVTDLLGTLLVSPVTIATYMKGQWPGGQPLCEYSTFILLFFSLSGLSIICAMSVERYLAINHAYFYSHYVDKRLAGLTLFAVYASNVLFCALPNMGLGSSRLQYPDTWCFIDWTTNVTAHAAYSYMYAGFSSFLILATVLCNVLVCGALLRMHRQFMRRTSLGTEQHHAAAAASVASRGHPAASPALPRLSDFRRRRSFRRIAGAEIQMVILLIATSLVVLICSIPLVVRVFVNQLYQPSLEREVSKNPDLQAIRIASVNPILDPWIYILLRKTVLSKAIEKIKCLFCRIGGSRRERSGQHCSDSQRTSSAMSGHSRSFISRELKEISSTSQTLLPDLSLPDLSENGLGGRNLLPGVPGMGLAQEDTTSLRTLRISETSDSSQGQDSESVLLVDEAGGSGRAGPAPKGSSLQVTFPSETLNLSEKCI

[4] = target: FP receptors (Homo sapiens, UniProt P43088); settings: Woodward et al., 2019; cited from earlier work
Sequence of FP receptors (P43088 whole entry): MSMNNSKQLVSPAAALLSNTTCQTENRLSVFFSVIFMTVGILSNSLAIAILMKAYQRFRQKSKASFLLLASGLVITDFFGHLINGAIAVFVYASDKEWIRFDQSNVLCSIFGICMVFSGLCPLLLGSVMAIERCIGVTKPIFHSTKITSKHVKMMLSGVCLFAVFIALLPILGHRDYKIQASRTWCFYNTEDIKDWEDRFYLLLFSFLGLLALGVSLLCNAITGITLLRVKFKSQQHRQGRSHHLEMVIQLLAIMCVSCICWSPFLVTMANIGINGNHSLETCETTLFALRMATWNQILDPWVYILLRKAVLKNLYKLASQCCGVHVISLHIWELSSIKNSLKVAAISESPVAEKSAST

[5] = target: T3, TP receptors (Homo sapiens, UniProt P21731); settings: Woodward et al., 2019; cited from earlier work
T3 sequence (P21731 1-343): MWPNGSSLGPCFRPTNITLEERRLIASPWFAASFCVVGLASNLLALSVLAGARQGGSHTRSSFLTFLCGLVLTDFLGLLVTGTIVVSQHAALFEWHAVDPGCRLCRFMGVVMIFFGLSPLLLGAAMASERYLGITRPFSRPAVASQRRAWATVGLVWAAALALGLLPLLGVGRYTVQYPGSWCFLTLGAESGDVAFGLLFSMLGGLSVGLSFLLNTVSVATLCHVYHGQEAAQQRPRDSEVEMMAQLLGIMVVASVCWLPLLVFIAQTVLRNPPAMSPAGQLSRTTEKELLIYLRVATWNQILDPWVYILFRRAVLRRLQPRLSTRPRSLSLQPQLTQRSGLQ

[6] = target: T4, EP1 receptors (Homo sapiens, UniProt P34995); settings: Woodward et al., 2019; cited from earlier work
T4 sequence (P34995 1-402): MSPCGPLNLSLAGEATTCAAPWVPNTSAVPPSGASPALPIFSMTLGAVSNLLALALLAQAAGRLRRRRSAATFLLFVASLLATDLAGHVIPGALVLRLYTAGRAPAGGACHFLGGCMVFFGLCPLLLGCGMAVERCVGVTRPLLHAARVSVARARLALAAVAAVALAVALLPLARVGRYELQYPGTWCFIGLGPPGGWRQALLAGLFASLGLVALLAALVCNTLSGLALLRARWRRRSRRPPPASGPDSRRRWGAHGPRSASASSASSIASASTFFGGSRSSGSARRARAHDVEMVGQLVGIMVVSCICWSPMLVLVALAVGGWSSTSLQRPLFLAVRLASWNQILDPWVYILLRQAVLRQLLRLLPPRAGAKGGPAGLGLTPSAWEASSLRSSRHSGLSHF

[7] = target: IP receptors (Homo sapiens, UniProt P43119); settings: Woodward et al., 2019; cited from earlier work
Sequence of IP receptors (P43119 whole entry): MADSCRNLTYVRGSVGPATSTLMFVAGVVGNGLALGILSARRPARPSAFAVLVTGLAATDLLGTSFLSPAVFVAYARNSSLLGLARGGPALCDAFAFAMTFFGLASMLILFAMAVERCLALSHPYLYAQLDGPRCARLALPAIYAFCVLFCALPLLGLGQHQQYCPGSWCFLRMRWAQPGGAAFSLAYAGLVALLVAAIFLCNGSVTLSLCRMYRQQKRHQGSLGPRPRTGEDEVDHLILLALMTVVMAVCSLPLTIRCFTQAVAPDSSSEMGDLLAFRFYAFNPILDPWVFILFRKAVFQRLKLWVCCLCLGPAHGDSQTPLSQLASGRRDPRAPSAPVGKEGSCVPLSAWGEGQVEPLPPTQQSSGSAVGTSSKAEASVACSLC

[8] = target: T5, DP receptors (Homo sapiens, UniProt Q13258); settings: Woodward et al., 2019; cited from earlier work
T5 sequence (Q13258 1-359): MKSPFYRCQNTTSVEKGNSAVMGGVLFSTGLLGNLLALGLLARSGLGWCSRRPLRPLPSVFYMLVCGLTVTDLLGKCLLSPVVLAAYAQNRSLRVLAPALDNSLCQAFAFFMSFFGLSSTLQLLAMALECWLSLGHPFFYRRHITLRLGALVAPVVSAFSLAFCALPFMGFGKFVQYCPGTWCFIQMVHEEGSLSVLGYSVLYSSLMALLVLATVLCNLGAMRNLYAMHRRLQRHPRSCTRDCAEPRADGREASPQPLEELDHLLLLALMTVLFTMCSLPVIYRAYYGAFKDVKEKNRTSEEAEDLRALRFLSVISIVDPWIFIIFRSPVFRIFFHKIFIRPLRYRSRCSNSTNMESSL

[9] = tested on: ocular normotensive cynomolgus monkeys; experiment: Intraocular pressure after single periorbital dose (Example 1); assay type: in vivo, cynomolgus monkey; settings: single periorbital dose of 10, 20 and 30 micrograms (similar extent), right eye (OD)
Excerpt: FIG. 2 compares the effect of 9 micrograms bimatoprost (30 pi of 0.03% Lumigan® ophthalmic solution) topical ocular surface administration once daily per eye for 4 days with single dose periorbital skin administration of [(3′-fluoro-4-fluorobiphenyl-3-carbonyl) amino] phenoxyacetic acid isopropyl ester ointment at 10 micrograms, 20 micrograms or 30 micrograms [(3′-fluoro-4-fluorobiphenyl-3-carbonyl) amino] phenoxyacetic acid isopropyl ester on intraocular pressure (TOP) in ocular normotensive Cynomolgus monkeys (Mean±SEM, n=4/group).
(§1) Ocular normotensive cynomolgus monkeys were administered a single dose of JV-GL1 Ointment (20% medium-chain triglycerides and 80% petrolatum (v/v)) to the periorbital skin of the right eye (OD) at JV-GL1 doses of 10 micrograms, 20 micrograms, and 30 micrograms and TOP was measured; Lumigan® eye drops were used as a comparator. […] Compared with baseline, IOP was decreased in the eyes (OD) of animals treated with 10 micrograms, 20 micrograms, and 30 micrograms JVGL-1 to a similar extent (approximately 60%) whereas a much lower decrease occurred for Lumigan® (approximately 30%).

[10] = tested on: human subjects; experiment: Tolerability in human subjects during periorbital dosing (Example 6); assay type: in vivo; settings: Groups 1-4, during the dosing period
Method: (§2) Human subjects were treated with JV-GL1 ointment (20% medium-chain triglycerides and 80% petrolatum (v/v)) via periorbital skin administration to both eyes once daily. The human subjects were monitored daily for 9 days, with TOP measurements taken at 0 hours, 0.5 hours, 2 hours, and 8 hours from administration of the dose on Days 0, 1, and 9. IOP measurements were taken 0 hours from administration of the dose on Days 4 and 7.

[11] = tested on: ocular normotensive cynomolgus monkeys; experiment: Local observations after low periorbital doses of ointment (0.2 to 5 micrograms/eye); assay type: in vivo, cynomolgus monkey
Method: Separately, ocular normotensive cynomolgus monkeys were administered single doses of the ointment at 0.6 micrograms, 2.0 micrograms or 5.0 micrograms per eye.

[12] = tested on: ocular normotensive cynomolgus monkeys; experiment: Periorbital skin and pupil observations after single periorbital dose of 10-30 micrograms (Example 1); assay type: in vivo, cynomolgus monkey
Method: as §1
The incidence rate of pupil constriction in the three test article groups was 100% after 2-3 hours post-dosing.

[13] = tested on: human subjects; experiment: IOP in human subjects after once daily periorbital ointment (Example 6); assay type: in vivo
Method: as §2

[14] = tested on: monkey; experiment: Monkey study of periorbital skin administration versus eye drops; assay type: in vivo; settings: essentially equal doses
[15] = tested on: ocular normotensive cynomolgus monkeys; experiment: Intraocular pressure after once daily periorbital 0.2 μg/eye ointment (Example 2); assay type: in vivo, cynomolgus monkey
Method: Animals were unilaterally treated via periorbital skin administration of [(3′-fluoro-4-fluorobiphenyl-3-carbonyl) amino] phenoxyacetic acid isopropyl ester ointment once daily on Days 15-21. The right eye of the control group (Group 2) received ointment vehicle once daily on Days 8-14 and no treatment on Days 15-21. OD=right eye.
Ocular normotensive cynomolgus monkeys (Group 1, n=3) were unilaterally treated via periorbital skin administration of JV-GL1 ointment once daily in an amount of 0.2 μg in the right eye on Days 15-21 of a study, the results of which are shown in FIG. 3. JV-GL1 was administered as an ointment (20% medium-chain triglycerides and 80% petrolatum (v/v)). The animals were untreated on days 8-14 and IOP monitored daily. Group 2 (n=3) was administered vehicle ointment alone on days 8-14, followed by no treatment on days 15-21 of the study.

[16] = 10, 20, 30 micrograms single dose

Structure (SMILES): O=C(O)COc1cccc(NC(=O)c2cc(-c3cccc(F)c3)ccc2F)c1 [JV-GL1 free acid, 3-[(3′-fluoro-4-fluorobiphenyl-3-carbonyl)amino] phenoxyacetic acid]
- affinity for EP3 receptors [1]: negligible
- maximal elevation of cAMP levels ([2]; HEK cells over-expressing human recombinant EP2 receptors, versus PGE2): comparable to that of the endogenous agonist PGE2
- EP2 receptor agonism ([2]; Woodward et al., 2019): potent and full EP2 receptor agonist
- affinity for EP4 receptors [3]: negligible
- affinity for FP receptors [4]: negligible
- affinity for TP receptors [5]: negligible
- affinity for EP1 receptors [6]: negligible
- affinity for IP receptors [7]: negligible
- affinity for DP receptors [8]: negligible

Structure (SMILES): CC(C)OC(=O)COc1cccc(NC(=O)c2cc(-c3cccc(F)c3)ccc2F)c1 [JV-GL1, 3-[(3′-fluoro-4-fluorobiphenyl-3-carbonyl)amino] phenoxyacetic acid isopropyl ester]
- IOP decrease compared with baseline [9]: approximately 60%
- irritation or discomfort associated with AE of mild periorbital erythema [10]: did not report any irritation or discomfort
- efficacy and local tolerability at lower doses ([11]; 0.2 to 5 micrograms/eye, periorbital): retained without obvious periorbital skin swelling and hyperemia of the periorbital skin and ocular surface
- pupil constriction during the dosing period ([11]; eyes treated with either eye drops or ointment): persistent pupil constriction was observed
- resolution of skin redness and swelling ([11]; single doses of ointment at 0.6, 2.0 or 5.0 micrograms per eye): disappeared a few hours to overnight after dosing
- incidence rate of periorbital skin swelling, dose relation [12, 16]: showed a certain dose dependent relationship
- recovery of periorbital skin redness [12, 16]: completely recovered by Day 2
- resolution of periorbital skin swelling [12, 16]: disappeared by Day 5
- incidence rate of periorbital skin redness ([12]; all three groups (10, 20, 30 micrograms), 2-3 hours post-dosing): 100%
- recovery of pupil constriction ([12]; except a single animal in the high-dose group): recovered by Day 15
- local findings at 10 to 30 micrograms/eye ([12]; in ointment, periorbital, 10 to 30 micrograms/eye): modest pupil constriction, erythema of the ocular surface and periorbital skin, and swelling of the periorbital skin
- incidence rate of pupil constriction ([12]; three groups (10, 20, 30 micrograms), after 2-3 hours post-dosing): 100%
- average change in TOP ([13]; Group 1, 0.30 μg/eye/day over 9 days, 0 hours after dose): −6%
- average change in TOP ([13]; Group 1, 0.30 μg/eye/day over 9 days, 0.5 hours after dose): −3%
- average change in TOP ([13]; Group 1, 0.30 μg/eye/day over 9 days, 2 hours after dose): 0%
- average change in TOP ([13]; Group 1, 0.30 μg/eye/day over 9 days, 8 hours after dose): −4%
- average change in TOP ([13]; Group 2, 0.59 μg/eye/day over 9 days, 0 hours after dose): −14%
- average change in TOP ([13]; Group 2, 0.59 μg/eye/day over 9 days, 0.5 hours after dose): −10%
- average change in TOP ([13]; Group 2, 0.59 μg/eye/day over 9 days, 2 hours after dose): −16%
- average change in TOP ([13]; Group 2, 0.59 μg/eye/day over 9 days, 8 hours after dose): −12%
- average change in TOP ([13]; Group 3, 0.99 μg/eye/day over 9 days, 0 hours after dose): −11%
- average change in TOP ([13]; Group 3, 0.99 μg/eye/day over 9 days, 0.5 hours after dose): −16%
- average change in TOP ([13]; Group 3, 0.99 μg/eye/day over 9 days, 2 hours after dose): −16%
- average change in TOP ([13]; Group 3, 0.99 μg/eye/day over 9 days, 8 hours after dose): −15%
- average change in TOP ([13]; Group 4, 1.92 μg/eye/day over 9 days, 0 hours after dose): −19%
- average change in TOP ([13]; Group 4, 1.92 μg/eye/day over 9 days, 0.5 hours after dose): −22%
- average change in TOP ([13]; Group 4, 1.92 μg/eye/day over 9 days, 2 hours after dose): −20%
- average change in TOP ([13]; Group 4, 1.92 μg/eye/day over 9 days, 8 hours after dose): −14%
- average change in TOP ([13]; Group 5, 3.99 μg/eye/day over 9 days, 0 hours after dose): −13%
- average change in TOP ([13]; Group 5, 3.99 μg/eye/day over 9 days, 0.5 hours after dose): −13%
- average change in TOP ([13]; Group 5, 3.99 μg/eye/day over 9 days, 2 hours after dose): −18%
- average change in TOP ([13]; Group 5, 3.99 μg/eye/day over 9 days, 8 hours after dose): −18%
- dose dependence of TOP reduction ([13]; Groups 1, 2, 3 and 4 (0.30 to 1.92 μg/eye/day)): dose-dependent trend in TOP reduction
- efficacy of periorbital skin administration versus eye drops [14]: as effective as eye drops
- onset of marked decrease in IOP ([15]; 0.2 μg/eye (OD) once daily): as early as one day following initiation of treatment
- IOP by the end of the study ([15]; 0.2 μg/eye (OD) once daily Days 15-21, from a starting point of ˜25 mmHg): ~10 mmHg
